Measurements taken from patent US20240279215A1 (Cytokinetics, Incorporated, priority 2022, published 2024).

Biological target: human NAMPT (Homo sapiens (Human), UniProt P43490)
Experiment: NMN fluorescence biochemical assay (human recombinant NAMPT enzyme assay)
Method in brief: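 Activation of recombinant human NAMPT (6 nM) was tested with 2.5 mM ATP, 20 μM PRPP and 150 μM nicotinamide in 50 mM HEPES pH 7.2 for 60 min at ambient temperature. NMN was derivatized with acetophenone/KOH/formic acid and read by fluorescence (355/460 nm) after 40 min.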

Chain of human NAMPT (P43490 whole entry): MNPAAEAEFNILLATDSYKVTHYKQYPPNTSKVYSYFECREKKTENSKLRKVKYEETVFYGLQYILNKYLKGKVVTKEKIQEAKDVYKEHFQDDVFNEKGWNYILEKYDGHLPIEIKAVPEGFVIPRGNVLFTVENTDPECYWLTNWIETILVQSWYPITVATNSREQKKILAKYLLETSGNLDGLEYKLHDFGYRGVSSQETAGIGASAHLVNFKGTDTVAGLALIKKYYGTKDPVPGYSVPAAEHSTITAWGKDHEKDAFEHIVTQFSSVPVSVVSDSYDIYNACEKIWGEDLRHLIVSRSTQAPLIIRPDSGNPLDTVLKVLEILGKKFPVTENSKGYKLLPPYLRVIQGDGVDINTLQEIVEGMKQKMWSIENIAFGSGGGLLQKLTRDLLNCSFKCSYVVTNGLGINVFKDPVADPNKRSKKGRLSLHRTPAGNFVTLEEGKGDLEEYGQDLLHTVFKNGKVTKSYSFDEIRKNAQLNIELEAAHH

| Compound | AC1.4 Human [µM] | EC50 [µM] |
| --- | --- | --- |
| Cc1nocc1C(=O)N[C@@H](C)c1ccc(NC(=O)OCc2ccc(Cl)cc2)cc1 [Compound 150, (4-chlorophenyl)methyl N-{4-[(1S)-1-[(3-methyl-1,2-oxazol-4-yl)formamido]ethyl]phenyl}carbamate] | 1.24 | 4.31 |
| CC(C)(C)OC(=O)N1CCC(Cc2ccc(NC(=O)OCc3cnco3)cc2)CC1 [Compound 79, tert-butyl 4-(4-(((oxazol-5-ylmethoxy)carbonyl)ami-no)benzyl)piperidine-1-carboxylate] | 0.66 | 23.6 |
| COc1ccc(C(=O)N[C@@H](C)c2ccc(NC(=O)OCc3ccc(Cl)cc3)cc2)cn1 [Compound 100, (4-chlorophenyl)methyl N-{4-[(1S)-1-[(6-methoxypyridin-3-yl)formamido]ethyl]phenyl}carbamate] | 0.81 | 1.22 |
| CN(Cc1ccc(NC(=O)OCc2ccc(Cl)cc2)cc1)C(=O)c1cnco1 [Compound 130, (4-chlorophenyl)methyl N-(4-[(N-methyl-1-1,3-oxazol-5-ylformamido)methyl]phenyl}carbamate] | 1.03 | 8.13 |
| COCCn1nccc1C(=O)NCc1ccc(NC(=O)OCc2ccc(Cl)cc2)cc1 [Compound 166, (4-chlorophenyl)methyl N-[4-({[2-(2-methoxyethyl)pyrazol-3-yl]formamido}methyl)phenyl]carbamate] | 1.38 | 5.87 |
| COC(=O)N1CCC(Cc2ccc(NC(=O)OCc3cnco3)cc2F)CC1 [Compound 450, methyl 4-(2-fluoro-4-(((oxazol-5-ylmethoxy)carbonyl)amino)benzyl)piperidine-1-carboxylate] | 0.13 | 4.97 |
| O=C(Nc1ccc(CC2C3CCC2CN(C2COC2)C3)cc1)OCc1cnco1 (stereo not shown) [Compound 425, oxazol-5-ylmethyl (4-((3-(oxetan-3-yl)-3-azabicyclo[3.2.1]octan-8-yl)methyl)phenyl)carbamate] | 0.57 | 52 |
| Cc1nn(C)c(C(=O)N(C)Cc2ccc(NC(=O)OCc3ccc(Cl)cc3)cc2)c1C [Compound 127, (4-chlorophenyl)methyl N-(4-{[N-methyl-1-(2,4,5-trimethylpyrazol-3-yl)formamido]methyl}phenyl)carbamate] | 1.00 | 7.3 |
| CC(C)n1nccc1C(=O)N[C@@H](C)c1ccc(NC(=O)OCc2ccc(Cl)cc2)cc1 [Compound 181, (4-chlorophenyl)methyl N-{4-[(1S)-1-[(2-isopropylpyrazol-3-yl)formamido]ethyl]phenyl}carbamate] | 1.53 | 15.6 |
| O=C(Cc1ccc(NC(=O)OCc2ccc(Cl)cc2)cc1)NC1CCOCC1 [Compound 308, (4-chlorophenyl)methyl N-(4-{[(oxan-4-yl)carbamoyl]methyl}phenyl)carbamate] | 5.08 | 8.69 |
| O=C(Nc1ccc(C2CCN(S(=O)(=O)N3CCC3)CC2)cc1)OCc1cnco1 [Compound 428, oxazol-5-ylmethyl (4-(1-(azetidin-1-ylsulfonyl)piperidin-4-yl)phenyl)carbamate] | 0.07 | 2.94 |
| O=C(Nc1ccc(CN2CCN(c3ccccn3)CC2)cc1)OCc1ccc(Cl)cc1 [Compound 29, (4-chlorophenyl)methyl N-(4-{[4-(pyridin-2-yl)piperazin-1-yl]methyl}phenyl)carbamate] | 0.37 | 1.51 |
| O=C(Nc1ccc(CC(=O)N2CCC(F)(F)CC2)cc1)OCc1ccc(Cl)cc1 [Compound 274, (4-chlorophenyl)methyl N-{4-[2-(4,4-difluoropiperidin-1-yl)-2-oxoethyl]phenyl}carbamate] | 3.32 | 6.15 |
| CC(O)(c1ccncc1)c1ccc(NC(=O)OCc2cnco2)cc1 (stereo not shown) [Compound 296, oxazol-5-ylmethyl (4-(1-hydroxy-1-(pyridin-4-yl)ethyl)phenyl)carbamate] | 4.62 | 14.3 |
| O=C(Nc1ccc(Cc2ccncc2)cc1)OCc1ccc(CO)cc1 [Compound 106, 4-(hydroxymethyl)benzyl (4-(pyridin-4-ylmethyl)phenyl)carbamate] | 0.86 | 26.4 |
| Cc1ocnc1C(=O)N[C@@H](C)c1ccc(NC(=O)OCc2ccc(Cl)cc2)cc1 [Compound 241, (4-chlorophenyl)methyl N-{4-[(1S)-1-[(5-methyl-1,3-oxazol-4-yl)formamido]ethyl]phenyl}carbamate] | 2.37 | 11.8 |
| CN(C)S(=O)(=O)N1CCC[C@@H](c2ccc(NC(=O)OCc3cnco3)cc2)C1 [Compound 384, oxazol-5-ylmethyl (S)-(4-(1-(N,N-dimethylsulfamoyl)piperidin-3-yl)phenyl)carbamate] | 0.24 | 23.3 |
| Cc1cnc(C(=O)NCc2ccc(NC(=O)OCc3ccc(Cl)cc3)cc2)cn1 [Compound 136, (4-chlorophenyl)methyl N-(4-{[(5-methylpyrazin-2-yl)formamido]methyl}phenyl)carbamate] | 1.09 | 2.23 |

| Compound | AC1.4 Human [µM] | EC50 [µM] |
| --- | --- | --- |
| CN1CC(=O)NC[C@@H]1c1ccc(NC(=O)OCc2ccc(F)cc2)cc1 [Compound 278, 4-fluorobenzyl (S)-(4-(1-methyl-5-oxopiperazin-2-yl)phenyl)carbamate] | 3.40 | 17.4 |
| O=C(Nc1ccc(CC2CCN(C(=O)N3CCCC3)CC2)cc1)OCc1cnco1 [Compound 462, oxazol-5-ylmethyl (4-((1-(pyrrolidine-1-carbonyl)piperidin-4-yl)methyl)phenyl)carbamate] | 0.18 | 13.3 |
| O=C(Nc1ccc(CNC(=O)N2CCC(F)(F)CC2)cc1)OCc1ccc(Cl)cc1 [Compound 309, (4-chlorophenyl)methyl N-{4-[(4,4-difluoropiperidine-1-carbonylamino)methyl]phenyl}carbamate] | 5.19 | 14.9 |
| Cc1coc(C(=O)NCc2ccc(NC(=O)OCc3ccc(Cl)cc3)cc2)n1 [Compound 276, (4-chlorophenyl)methyl N-(4-{[(4-methyl-1,3-oxazol-2-yl)formamido]methyl}phenyl)carbamate] | 3.32 | 18.3 |
| CN(C)S(=O)(=O)N1CCC(c2ccc(NC(=O)OCc3cnco3)cc2)CC1 [Compound 432, oxazol-5-ylmethyl (4-(1-(N,N-dimethylsulfamoyl)piperidin-4-yl)phenyl)carbamate] | 0.07 | 4.73 |
| CN1CC(=O)NC[C@@H]1c1ccc(NC(=O)OCc2ccc(Cl)cc2F)cc1 [Compound 81, 4-chloro-2-fluorobenzyl (S)-(4-(1-methyl-5-oxopiperazin-2-yl)phenyl)carbamate] | 0.66 | 3.41 |
| O=C(Nc1ccc(C2CCN(C(=O)N3CCC3)CC2)cc1)OCc1cnco1 [Compound 429, oxazol-5-ylmethyl (4-(1-(azetidine-1-carbonyl)piperidin-4-yl)phenyl)carbamate] | 0.19 | 41.6 |
| CC(C)C(=O)N1CCC(c2ccc(NC(=O)OCc3cnco3)cc2F)CC1 [Compound 414, oxazol-5-ylmethyl (3-fluoro-4-(1-isobutyrylpiperidin-4-yl)phenyl)carbamate] | 0.03 | 26.2 |
| O=C(Nc1ccc(Cc2ccncc2)cc1)OCc1ccnnc1 [Compound 326, pyridazin-4-ylmethyl (4-(pyridin-4-ylmethyl)phenyl)carbamate] | 8.05 | 31.9 |
| O=C(Nc1ccc(CC2CCN(S(=O)(=O)C3CCC3)CC2)cc1)OCc1cnco1 [Compound 459, oxazol-5-ylmethyl (4-((1-(cyclobutylsulfonyl)piperidin-4-yl)methyl)phenyl)carbamate] | 0.18 | 7.06 |
| CC(=O)N1CC2(CC(c3ccc(NC(=O)OCc4cnco4)cc3F)C2)C1 [Compound 401, oxazol-5-ylmethyl (4-(2-acetyl-2-azaspiro[3.3]heptan-6-yl)-3-fluorophenyl)carbamate] | 0.04 | 3.37 |
| CC1CN(C(=O)N[C@@H](C)c2ccc(NC(=O)OCc3ccc(Cl)cc3)cc2)C1 [Compound 144, (4-chlorophenyl)methyl N-{4-[(1S)-1-(3-methylazetidine-1-carbonylamino)ethyl]phenyl}carbamate] | 1.18 | 7.67 |
| Cc1n[nH]c(C)c1C(=O)N(C)Cc1ccc(NC(=O)OCc2ccc(Cl)cc2)cc1 [Compound 206, (4-chlorophenyl)methyl N-(4-{[1-(3,5-dimethyl-1H-pyrazol-4-yl)-N-methylformamido]methyl}phenyl)carbamate] | 1.85 | 14.7 |
| C[C@@H](c1ccc(NC(=O)OCc2ccc(Cl)cc2)cc1)N(C)C(=O)N1CCC1 [Compound 89, 4-chlorobenzyl (S)-(4-(1-(N-methylazetidine-1-carboxamido)ethyl)phenyl)carbamate] | 0.71 | 9.4 |
| Cc1noc(Cc2ccc(NC(=O)OCc3ccc(Cl)cc3)cc2)n1 [Compound 344, (4-chlorophenyl)methyl N-{4-[(3-methyl-1,2,4-oxadiazol-5-yl)methyl]phenyl}carbamate] | 13.04 | 34 |
| CC(C)C(=O)N1CC2CCC(C1)C2Cc1ccc(NC(=O)OCc2cnco2)cc1 (stereo not shown) [Compound 423, oxazol-5-ylmethyl (4-((3-isobutyryl-3-azabicyclo[3.2.1]octan-8-yl)methyl)phenyl)carbamate] | 0.18 | 15.4 |
| CC(=O)N1CCC(c2ccc(NC(=O)OCc3cnco3)cc2F)CC1 [Compound 413, oxazol-5-ylmethyl (4-(1-acetylpiperidin-4-yl)-3-fluorophenyl)carbamate] | 0.10 | 25.6 |
